Results from PMC7318222, “A Family of Water‐Immiscible, Dipolar Aprotic, Diamide Solvents from Succinic Acid” (Chemsuschem, 2020).

Key:
Design in all cases: key: –: no effect observed up to the highest test concentration
[1] = system: ESRE; experiment: ESRE CALUX assay (unfolded protein response); type: cell-based, human; settings: cell signaling pathway assay, 24 h exposure
From the text: (§1) Six of the CALUX assays (TCF through p53) detect activation of several cellular signaling pathways, which are indicative of general stress and acute toxicity, but also a range of more specific types of toxicity, including reproductive toxicity. […]
(§2) 2-methylimidazole 99.0%, zinc(II) nitrate hexahydrate ≥99.0%, para-cymene 99.0%, 1,4-dioxane 99.8% (anhydrous), 4-nitroaniline ≥99.0%, 1-octanol ≥99.0%, diglyme ≥99.0%, DMSO-d6 (99.8% D) and chloroform-d (99.8% D) were purchased from Sigma-Aldrich. Toluene ≥99.0%, hexane ≥99.5%, DCM ≥99.5%, chloroform ≥99.5%, DMSO ≥99.0% were purchased from VWR. N,N-diethyl-4-nitroaniline ≥98.0% was purchased from Alfa Aeser. Cyrene was supplied by Circa group. N-butylpyrrolidinone was supplied by Eastman chemicals. N,N-dimethylformamide 99.9% and N,N-dimethylacetamide 99.9% were purchased from Fischer. The flakes of Ultrason® E3020 P Polyarylethersulfone of 55,000 Da were obtained from INGE.BASF, Germany. The CALUX cell lines have been described previously.[1] They are based on human U2-OS cells (ATCC, HTB-96) stably transfected with an expression construct for the full-length human receptor under investigation, and a reporter construct consisting of multimerized responsive elements for the cognate receptor coupled to a minimal promoter element (TATA) and a luciferase gene. Cells were maintained as described previously,[2] using cell culture media and supplements from Fisher Scientific as described in the experimental procedures section. […]
(§3) In vitro reporter gene assays
(§4) The automated CALUX assays were carried out similarly as described earlier,[12] with some adaptations. In brief, the assay was performed in CO2 independent medium (Fisher Scientific, […]
(§5) supplement (Fisher Scientific, 11574466), 10 U/mL penicillin and 10 µg/mL streptomycin. A cell suspension in assay medium was made of 1 × 10^5cells/mL, and white 384-wells plates were seeded with 30 µl cell suspension/well. After 24 h, exposure medium was prepared. A dilution series in 0.5log unit increments of each test compound (in DMSO) was added to a 96-wells plate containing assay medium (2% v/v). Of this exposure mixture, 30 µl was added to the assay plates containing the CALUX cells, resulting in a final DMSO concentration of 1%. Additionally, DMSO blanks and a full dose response curve of the relevant reference compound were included on each plate. All samples were tested in triplicate. The preparation of the compound dilution series as well as the exposure of the cells were performed on a Hamilton StarLET liquid handling robot coupled to a Cytomat incubator.
(§6) Directly after exposure, plates were sealed with non-breathing plate seals (Plate sealer, easy seal transparent; Greiner-Bio-One, 676001). After 24 h the exposure medium was removed using an EL406 washer-dispenser (BioTek) and 10 µl/well triton lysisbuffer was added by the EL406.
(§7) Subsequently, the luciferase signal was measured in a luminometer (InfinitePro coupled to a Connect Stacker, both TECAN). In order to be able to detect receptor antagonism, several assays were also performed in antagonistic mode. The assay procedure was as described above, with the only exception that the EC50 concentration of the reference agonist was present during the exposure.
(§8) The luminometer data was analysed as follows; the average of the triplicate wells was determined, and the average blank (DMSO) value was subtracted. […] For antagonist- and cytotoxicity experiments, PC20 values were determined instead, which was defined […]

[2] = system: TCF; experiment: TCF CALUX assay (Wnt signaling); type: cell-based, human; settings: cell signaling pathway assay, 24 h exposure
From the text: as §1, §2, §3, §4, §5, §6, §7, §8

[3] = molecular target: T1, AhR (Homo sapiens, UniProt P35869); experiment: AhR CALUX reporter gene assay; type: cell-based; settings: PC10, 24 h exposure
T1 construct: expression construct for the full-length human receptor under investigation; expressed in transfected cells; host or cells: human U2-OS cells (ATCC HTB-96), stably transfected
T1 sequence (P35869 11-848): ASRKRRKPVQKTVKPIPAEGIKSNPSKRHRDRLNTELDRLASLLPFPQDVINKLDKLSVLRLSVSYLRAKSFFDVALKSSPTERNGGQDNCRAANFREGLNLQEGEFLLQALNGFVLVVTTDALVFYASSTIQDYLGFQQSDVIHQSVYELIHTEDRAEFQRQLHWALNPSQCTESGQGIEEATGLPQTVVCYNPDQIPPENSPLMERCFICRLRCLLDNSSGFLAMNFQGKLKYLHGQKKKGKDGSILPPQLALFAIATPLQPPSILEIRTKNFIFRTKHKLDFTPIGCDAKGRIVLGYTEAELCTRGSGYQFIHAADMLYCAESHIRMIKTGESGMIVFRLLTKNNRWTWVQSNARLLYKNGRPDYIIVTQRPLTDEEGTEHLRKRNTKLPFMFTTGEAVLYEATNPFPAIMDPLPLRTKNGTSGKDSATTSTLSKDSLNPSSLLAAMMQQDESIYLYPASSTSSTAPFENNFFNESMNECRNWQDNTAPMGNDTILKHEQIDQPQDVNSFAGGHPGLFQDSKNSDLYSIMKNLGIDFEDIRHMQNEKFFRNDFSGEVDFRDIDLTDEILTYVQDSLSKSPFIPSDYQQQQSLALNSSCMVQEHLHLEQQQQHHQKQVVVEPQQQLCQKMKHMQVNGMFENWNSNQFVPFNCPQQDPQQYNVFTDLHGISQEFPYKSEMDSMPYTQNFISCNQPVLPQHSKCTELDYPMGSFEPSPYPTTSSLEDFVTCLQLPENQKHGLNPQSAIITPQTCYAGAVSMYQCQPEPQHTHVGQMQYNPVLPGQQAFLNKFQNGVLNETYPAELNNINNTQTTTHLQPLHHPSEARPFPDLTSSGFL
From the text: as §2, §3, §4, §5, §6
Subsequently, the luciferase signal was measured in a luminometer (InfinitePro coupled to a Connect Stacker, both TECAN). In order to be able to detect receptor antagonism, several assays were also performed in antagonistic mode. […]
as §8, with “defined as the concentration where the test compound causes a 20% decrease in the basal signal, which was” for “defined”
curve, the signal induction above background (DMSO) was determined, and the concentration where the compound elicited a 1.5-fold increase above background was used as LEC.

| SMILES | LEC ESRE [1] | LEC TCF [2] | LEC AhR [3] |
| --- | --- | --- | --- |
| CCCCN1CCCC1=O [NBP, N‐Butylpyrrolidinone, reference compound] | – | – | – |
| CCCCN(CCCC)C(=O)CCC(=O)N(CCCC)CCCC [TBSA, N,N,N′,N′‐tetrabutylsuccindiamide] | – | – | – |
| CN1CCCC1=O [NMP, N‐methyl‐2‐pyrrolidone, reference compound] | – | −2.1 Log M | −2.0 Log M |
| CCCCN(CC)C(=O)CCC(=O)N(CC)CCCC [EBSA, N,N′‐diethyl‐N,N′‐dibutylsuccindiamide] | – | – | – |
| CCCCN(C)C(=O)CCC(=O)N(C)CCCC [MBSA, N,N′‐dimethyl‐N,N′‐dibutylsuccindiamide] | −2.4 Log M | – | – |
